Measured values: paper PMC4423729 (Neuropharmacology, 2010)

Experiments:
[1] = target: rtPA (Homo sapiens, UniProt P00750); test: Plasminogen activator activity; type: biochemical; details: Glu-plasminogen 100 nM, Spectrazyme PL 500 μM, PBS, 37°C, A405, 3 experiments
[2] = test system: BBB permeability; test: BBB permeability post ischemia; type: in vivo, rat; details: Evans blue, 12 animals/group
[3] = test system: isolated aortic rings; test: tPA induced vasodilation: phenylephrine contraction of isolated aortic rings; details: rtPA 1 nM, peptide 100 nM; EC50 of phenylephrine contraction; 3 experiments
[4] = for solubility in an aqueous environment: qualitative
[5] = test system: BBB permeability; test: BBB permeability by extravasation of radiolabeled fibrinogen in rats; type: in vivo, rat; details: PAI-1 or peptide 1 mg/kg IV together with rtPA 1 mg/kg, 6 animals/group
[6] = test system: Sprague-Dawley rats; details: rat, in vivo

Chain of rtPA (P00750 36-562): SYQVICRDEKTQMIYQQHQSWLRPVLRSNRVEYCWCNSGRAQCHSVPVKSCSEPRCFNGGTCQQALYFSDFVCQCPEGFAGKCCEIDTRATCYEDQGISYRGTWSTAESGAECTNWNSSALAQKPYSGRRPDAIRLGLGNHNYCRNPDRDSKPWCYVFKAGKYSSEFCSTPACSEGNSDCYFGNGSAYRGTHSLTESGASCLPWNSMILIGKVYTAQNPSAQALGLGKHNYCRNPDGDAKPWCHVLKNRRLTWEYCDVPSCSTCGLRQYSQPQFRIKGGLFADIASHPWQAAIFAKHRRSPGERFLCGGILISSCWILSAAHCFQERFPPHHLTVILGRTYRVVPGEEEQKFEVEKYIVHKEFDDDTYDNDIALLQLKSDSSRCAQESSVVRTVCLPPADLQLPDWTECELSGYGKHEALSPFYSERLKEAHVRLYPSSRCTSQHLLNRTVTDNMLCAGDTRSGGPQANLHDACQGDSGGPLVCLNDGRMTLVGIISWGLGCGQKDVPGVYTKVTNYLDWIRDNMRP

| Compound | effect on the catalytic activity of rtPA (plasminogen activation) [1] | inhibition of the late effect of rtPA on BBB permeability ([2]; peptide together with rtPA three hours after the filament was withdrawn) [%] | inhibition of rtPA-induced vasodilation [3] | solubility in an aqueous environment [4] | effect on the catalytic activity of rtPA (plasminogen activation) ([1]; listed as 18-aa- Phe^383) | inhibition of rtPA-induced permeation of radiolabeled fibrinogen [5] | maximal solubility ([4]; lyophilized peptide resuspended in 50% ethanol at 37°C, vortexed) [µg/mL] | effect of rtPA on mortality [6] | effect of rtPA on neurological severity score (NSS) [6] | mortality [6] [%] | BBB permeability post tMCAO ([2]; rtPA three hours after the filament was withdrawn) |
| --- | --- | --- | --- | --- | --- | --- | --- | --- | --- | --- | --- |
| CC[C@H](C)[C@H](NC(=O)[C@H](CCC(=O)O)NC(=O)[C@H](CCC(=O)O)NC(=O)[C@@H]1CCCN1C(=O)[C@H](C)NC(=O)[C@H](CCSC)NC(=O)[C@H](CCCNC(=N)N)NC(C)=O)C(=O)N[C@H](C(=O)N[C@@H](CCSC)C(=O)N[C@@H](CC(=O)O)C(=O)N[C@@H](CCCNC(=N)N)C(=O)N1CCC[C@H]1C(=O)N[C@@H](Cc1ccccc1)C(=O)N[C@@H](CC(C)C)C(=O)N[C@@H](Cc1ccc(O)cc1)C(=O)N[C@H](C(=O)N[C@H](C(=O)N[C@@H](CCCNC(=N)N)C(N)=O)C(C)C)C(C)C)[C@@H](C)CC [18-aa-Tyr^383] | without inhibiting the catalytic activity of rtPA | 96.7 | inhibited rtPA-induced vasodilation | more soluble in an aqueous environment than the original sequence | – | – | – | – | – | – | – |
| CC[C@H](C)[C@H](NC(=O)[C@H](CCC(=O)O)NC(=O)[C@H](CCC(=O)O)NC(=O)[C@@H]1CCCN1C(=O)[C@H](C)NC(=O)[C@H](CCSC)NC(=O)[C@H](CCCNC(=N)N)NC(C)=O)C(=O)N[C@H](C(=O)N[C@@H](CCSC)C(=O)N[C@@H](CC(=O)O)C(=O)N[C@@H](CCCNC(=N)N)C(=O)N1CCC[C@H]1C(=O)N[C@@H](Cc1ccccc1)C(=O)N[C@@H](CC(C)C)C(=O)N[C@@H](Cc1ccccc1)C(=O)N[C@H](C(=O)N[C@H](C(=O)N[C@@H](CCCNC(=N)N)C(N)=O)C(C)C)C(C)C)[C@@H](C)CC [18-aa] | without affecting the catalytic activity of rtPA | – | inhibited vasodilation | relatively insoluble | without inhibiting the catalytic activity of rtPA | inhibited | 200 | – | – | – | – |
| Ac-RMAPEEIIMDR-NH2 [11-aa] | without affecting the catalytic activity of rtPA | – | inhibited vasodilation | – | – | – | – | – | – | – | – |
| rtPA | – | – | – | – | – | – | – | increased mortality | aggravated the neurological disability | 28.6±4.2 | re-opened the BBB |
